“And” between values parts separate entries of the source, which are not always exact repeats. Identical values can stand only once. Inconclusive results and toxic doses are left out. Rule for the calls: active = survival T/C of 150% or more; inactive = T/C below 125% in these data.
Test system: P388 leukemia ip, CD2F1 mice, survival T/C
Experiment: NCI In Vivo Anticancer Drug Screen. Data for tumor model P388 Leukemia (intraperitoneal) in CD2F1 (CDF1) mice
Details: endpoint: median survival time, higher = longer survival
Method in brief: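 Mice carrying the transplanted tumor received test compound or vehicle. Survival was recorded in each group, and the value is the treated-group measurement divided by that of the vehicle-treated control group.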

[1] = dose: 50.0 mg/kg/injection, schedule: Q01DX005 (ip), vehicle: Klucel (hydroxypropylcellulose) (HPC)
[2] = dose: 100.0 mg/kg/injection, schedule: Q01DX005 (ip), vehicle: Klucel (hydroxypropylcellulose) (HPC)
[3] = dose: 200.0 mg/kg/injection, schedule: Q01DX005 (ip), vehicle: Klucel (hydroxypropylcellulose) (HPC)
[4] = dose: 50.0 mg/kg/injection, schedule: Q01DX005 (ip), vehicle: saline with Tween-80
[5] = dose: 100.0 mg/kg/injection, schedule: Q01DX005 (ip), vehicle: saline with Tween-80
[6] = dose: 12.5 mg/kg/injection, schedule: Q01DX005 (ip), vehicle: saline
[7] = dose: 25.0 mg/kg/injection, schedule: Q01DX005 (ip), vehicle: saline
[8] = dose: 50.0 mg/kg/injection, schedule: Q01DX005 (ip), vehicle: saline
[9] = dose: 50.0 mg/kg/injection, schedule: Q01DX009 (ip), vehicle: saline with Tween-80
[10] = dose: 100.0 mg/kg/injection, schedule: Q01DX009 (ip), vehicle: saline with Tween-80
[11] = dose: 25.0 mg/kg/injection, schedule: Q01DX009 (ip), vehicle: saline
[12] = dose: 50.0 mg/kg/injection, schedule: Q01DX009 (ip), vehicle: saline
[13] = dose: 100.0 mg/kg/injection, schedule: Q01DX009 (ip), vehicle: saline
[14] = dose: 200.0 mg/kg/injection, schedule: Q01DX009 (ip), vehicle: saline
[15] = dose: 200.0 mg/kg/injection, schedule: Q01DX005 (ip), vehicle: saline with Tween-80

Measured: T/C

Cc1c(C)c(=O)c2cc3c(=O)ccc(=O)c3cc2c1=O
inactive: dose: 12.5 mg/kg/injection, schedule: Q04DX003 (ip), vehicle: Klucel (hydroxypropylcellulose) (HPC) 101 % of control | dose: 25.0 mg/kg/injection, schedule: Q04DX003 (ip), vehicle: Klucel (hydroxypropylcellulose) (HPC) 96 % of control | dose: 50.0 mg/kg/injection, schedule: Q04DX003 (ip), vehicle: Klucel (hydroxypropylcellulose) (HPC) 103 % of control

CC1(C)C2CCC(C2)C1/C=C1/SC(=S)NC1=O (stereo not given)
inactive: [1] 99 % of control | [2] 100 % of control | [3] 100 % of control

Cc1nc(-c2ccccc2)nc2c1nc(C(C)C)n2Nc1ccccc1
inactive: [4] 96 % of control | [5] 98 % of control

C=C=CON1CCCCC1
inactive: [6] 99 % of control | [7] 104 % of control | [8] 100 % of control and 104 % of control

CCOC(=O)C12C(C(=O)OC)=CC(=O)NC1(OCC)OC(C)C2C (stereo not given)
inactive: dose: 50.0 mg/kg/injection, schedule: Q01DX001 (ip), vehicle: Klucel (hydroxypropylcellulose) (HPC) 94 % of control | dose: 100.0 mg/kg/injection, schedule: Q01DX001 (ip), vehicle: Klucel (hydroxypropylcellulose) (HPC) 89 % of control | dose: 200.0 mg/kg/injection, schedule: Q01DX001 (ip), vehicle: Klucel (hydroxypropylcellulose) (HPC) 89 % of control

CCOc1n[n+]([O-])c(Cl)cc1[N+](=O)[O-]
inactive: dose: 25.0 mg/kg/injection, schedule: Q01DX009 (ip), vehicle: saline with Tween-80 103 % of control | [9] 102 % of control | [10] 100 % of control

Cn1nccc1N
inactive: [11] 117 % of control | [12] 108 % of control

CCCC(C)N(CCCNc1cc(OC)cc2cccnc12)CC(C)C (stereo not given)
inactive: [6] 100 % of control | [7] 107 % of control | [4] 96 % of control | [8] 94 % of control

Cc1[nH]c2ccc(N(C)C)cc2c(=O)c1CN(C)Cc1c(C)[nH]c2ccc(N(C)C)cc2c1=O
inactive: dose: 60.0 mg/kg/injection, schedule: Q01DX005 (ip), vehicle: saline with Tween-80 99 % of control | dose: 120.0 mg/kg/injection, schedule: Q01DX005 (ip), vehicle: saline with Tween-80 100 % of control | dose: 240.0 mg/kg/injection, schedule: Q01DX005 (ip), vehicle: saline with Tween-80 100 % of control

COC(=O)C1Cc2[nH]cnc2C(c2c(CO)cnc(C)c2O)N1 (stereo not given)
inactive: [1] 104 % of control | [2] 104 % of control

CSCc1ccc(C(N)C(=O)O)cc1 (stereo not given)
inactive: dose: 50.0 mg/kg/injection, schedule: Q04DX002 (ip), vehicle: saline with Tween-80 99 % of control | dose: 100.0 mg/kg/injection, schedule: Q04DX002 (ip), vehicle: saline with Tween-80 96 % of control | dose: 200.0 mg/kg/injection, schedule: Q04DX002 (ip), vehicle: saline with Tween-80 99 % of control

CCCCCCCCCCCCCC[N+]1([O-])CCCCCC1
inactive: [12] 90 % of control

CN(C)CCN(C)C(=N)N
inactive: [11] 100 % of control and 105 % of control | [12] 104 % of control | [13] 91 % of control and 96 % of control | [14] 88 % of control and 94 % of control

CO[C@@H]1C2=CC=CC=C[C@H]2n2c(=O)n(C)c(=O)n21
inactive: [1] 100 % of control | dose: 75.0 mg/kg/injection, schedule: Q01DX005 (ip), vehicle: other 109 % of control | [2] 98 % of control | dose: 150.0 mg/kg/injection, schedule: Q01DX005 (ip), vehicle: other 115 % of control | [3] 102 % of control | dose: 300.0 mg/kg/injection, schedule: Q01DX005 (ip), vehicle: other 111 % of control

O=C1Nc2ccccc2S/C1=C\c1ccccc1C(F)(F)F
inactive: [12] 108 % of control | [13] 106 % of control

CO[C@H]1[C@H]2OC(C)(C)O[C@H]2O[C@H]1/C=C1\CC(=O)NC1=O
inactive: [12] 111 % of control | dose: 50.0 mg/kg/injection, schedule: Q01DX009 (ip), vehicle: suspension in saline 96 % of control | [13] 116 % of control | dose: 100.0 mg/kg/injection, schedule: Q01DX009 (ip), vehicle: suspension in saline 104 % of control | dose: 200.0 mg/kg/injection, schedule: Q01DX009 (ip), vehicle: suspension in saline 110 % of control

OCC1(CO)COC2(CCCCC2)N1
inactive: [12] 107 % of control | [13] 101 % of control and 120 % of control | [14] 100 % of control and 124 % of control

CCC#CC(=O)O
inactive: [11] 96 % of control | [12] 95 % of control and 96 % of control

CN(C)C(=O)c1cc(C(=O)N(C)C)cc2cccc-2c1
inactive: dose: 25.0 mg/kg/injection, schedule: Q04DX002 (ip), vehicle: saline 102 % of control | dose: 50.0 mg/kg/injection, schedule: Q04DX002 (ip), vehicle: saline 98 % of control | dose: 100.0 mg/kg/injection, schedule: Q04DX002 (ip), vehicle: saline 99 % of control and 97 % of control

CN(C)c1ccc(/C=C/C2=[N+](C)c3ccccc3C2(C)C)cc1
inactive: dose: 0.03 mg/kg/injection, schedule: Q01DX009 (ip), vehicle: saline 110 % of control | dose: 0.07 mg/kg/injection, schedule: Q01DX009 (ip), vehicle: saline 97 % of control

COC(=O)c1nc(N)nc(C(=O)OC)c1C(=O)c1ccc(F)cc1
inactive: dose: 60.0 mg/kg/injection, schedule: Q01DX005 (ip), vehicle: Klucel (hydroxypropylcellulose) (HPC) 101 % of control | dose: 120.0 mg/kg/injection, schedule: Q01DX005 (ip), vehicle: Klucel (hydroxypropylcellulose) (HPC) 102 % of control

FC(F)(F)C1(C(F)(F)F)OS2(OC(C(F)(F)F)(C(F)(F)F)c3ccccc32)c2ccccc21
inactive: dose: 100.0 mg/kg/injection, schedule: Q04DX003 (ip), vehicle: Klucel (hydroxypropylcellulose) (HPC) 91 % of control | dose: 200.0 mg/kg/injection, schedule: Q04DX003 (ip), vehicle: Klucel (hydroxypropylcellulose) (HPC) 91 % of control | dose: 400.0 mg/kg/injection, schedule: Q04DX003 (ip), vehicle: Klucel (hydroxypropylcellulose) (HPC) 92 % of control

COc1cc2c(cc1OC)C(c1ccc(S(=O)(=O)C(C)C)cc1)NCC2 (stereo not given)
inactive: dose: 50.0 mg/kg/injection, schedule: Q01DX009 (ip), vehicle: Klucel (hydroxypropylcellulose) (HPC) 89 % of control | dose: 100.0 mg/kg/injection, schedule: Q01DX009 (ip), vehicle: Klucel (hydroxypropylcellulose) (HPC) 101 % of control | dose: 200.0 mg/kg/injection, schedule: Q01DX009 (ip), vehicle: Klucel (hydroxypropylcellulose) (HPC) 108 % of control

O=C1CN(CCCN2CCOCC2)CC(=O)N2Cc3ccccc3CN12
inactive: [8] 95 % of control | dose: 100.0 mg/kg/injection, schedule: Q01DX005 (ip), vehicle: saline 110 % of control | dose: 200.0 mg/kg/injection, schedule: Q01DX005 (ip), vehicle: saline 108 % of control

CSCCC(NC(=O)OC(C)(C)C)C(=O)ON1C(=O)CCC1=O (stereo not given)
inactive: dose: 12.5 mg/kg/injection, schedule: Q01DX005 (ip), vehicle: saline with Tween-80 101 % of control and 107 % of control | dose: 25.0 mg/kg/injection, schedule: Q01DX005 (ip), vehicle: saline with Tween-80 103 % of control and 107 % of control | [4] 117 % of control and 98 % of control | [5] 106 % of control and 113 % of control and 116 % of control | [15] 107 % of control and 97 % of control

Brc1ccc(Nc2nnc3nc(-c4ccccc4)c(-c4ccccc4)nn23)cc1
inactive: [4] 89 % of control | [5] 89 % of control | [15] 97 % of control

N#Cc1nn(-c2ccccc2)sc1=N
inactive: dose: 3.13 mg/kg/injection, schedule: Q01DX009 (ip), vehicle: other 104 % of control | dose: 6.25 mg/kg/injection, schedule: Q01DX009 (ip), vehicle: other 110 % of control | dose: 12.5 mg/kg/injection, schedule: Q01DX009 (ip), vehicle: other 100 % of control | dose: 25.0 mg/kg/injection, schedule: Q01DX009 (ip), vehicle: other 94 % of control | dose: 50.0 mg/kg/injection, schedule: Q01DX009 (ip), vehicle: other 88 % of control | dose: 100.0 mg/kg/injection, schedule: Q01DX009 (ip), vehicle: other 88 % of control

CC(=O)OC1CCC2(C)C(C1)CC(OC(C)=O)C1C2CC(OC(C)=O)C2(C)C(C(C)CC=C(c3ccccc3)c3ccccc3)CCC12 (stereo not given)
inactive: [9] 100 % of control | [10] 98 % of control | dose: 200.0 mg/kg/injection, schedule: Q01DX009 (ip), vehicle: saline with Tween-80 99 % of control

Cc1nn(-c2ccccc2)c(=O)n2nnnc12
inactive: dose: 100.0 mg/kg/injection, schedule: Q01DX001 (ip), vehicle: saline with Tween-80 96 % of control | dose: 200.0 mg/kg/injection, schedule: Q01DX001 (ip), vehicle: saline with Tween-80 94 % of control | dose: 400.0 mg/kg/injection, schedule: Q01DX001 (ip), vehicle: saline with Tween-80 96 % of control
